Some test systems named below: OVCAR-8; HOP-62; RPMI-8226; PC-3; NCI/ADR-RES; A498; K562; SNB-19; SK-MEL-28; SF-295; EKVX; DU-145; OVCAR-3; Hs-578T; OVCAR-5; COLO 205; UO-31; MDA-MB-231; ACHN; HT-29.
Common to all, as to assay: NCI tumour cell line growth inhibition, 48 h

The record followed here is ChEMBL document CHEMBL1201862, “PubChem BioAssay data set” (2004).

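Cultured in 96-well plates, cells were exposed to test compound for 48 hours across five concentrations. The concentration for 50% growth inhibition is given as GI50.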 The source made the active and inactive calls. No stated cut-off is given here; in the data, active = GI50 up to about 1.1 µM and inactive = higher.

`Cn1c(-c2cccs2)cc(-c2cccs2)c1-c1cccs1`: the GI50 with OVCAR-8 is > 100 µM (inactive); in the experiment on HOP-62 it was > 100 µM (inactive); with RPMI-8226 it was 20.4 µM (inactive); in the experiment with PC-3, > 100 µM (inactive); in the experiment on NCI/ADR-RES it was > 100 µM (inactive); in the experiment on A498 it was > 100 µM (inactive). Moreover, the GI50 in the experiment on K562 is 51.8 µM (inactive); with SNB-19, > 100 µM (inactive); with SK-MEL-28, > 100 µM (inactive); with SF-295 it was > 81.3 µM (inactive); in the experiment on EKVX, 39.2 µM (inactive); in the experiment on DU-145, > 100 µM (inactive). Also, the GI50 in the experiment on OVCAR-3 was 43.8 µM (inactive); in the experiment with Hs-578T, 44.5 µM (inactive); with OVCAR-5 it was > 100 µM (inactive); in the experiment on COLO 205, 8.95 µM (inactive); with UO-31, > 96.4 µM (inactive); in the experiment on MDA-MB-231, 98.9 µM (inactive). The GI50 is 75 µM (inactive) in the experiment with ACHN and > 100 µM (inactive) in the experiment on HT-29.
For the compound `CCN(CC)CCNC(=O)c1cc2cc(NC(=O)c3cc4cc(NC(=O)c5cc6cc([N+](=O)[O-])ccc6[nH]5)ccc4[nH]3)ccc2[nH]1`, the GI50 in the experiment with OVCAR-8 was > 100 µM (inactive); in the experiment with HOP-62, > 100 µM (inactive); in the experiment with RPMI-8226 it was < 0.01 µM (active); in the experiment on PC-3 it was > 100 µM (inactive); with NCI/ADR-RES it was > 100 µM (inactive); with A498 it was > 100 µM (inactive). The GI50 in the experiment on K562, in the experiment with SNB-19, in the experiment on SK-MEL-28, in the experiment on SF-295, in the experiment on EKVX and with DU-145 was > 100 µM (inactive) throughout. Moreover, the GI50 in the experiment on OVCAR-3, in the experiment with Hs-578T, in the experiment with OVCAR-5, with COLO 205, with UO-31 and in the experiment with MDA-MB-231 was > 100 µM (inactive) each time. Besides, the GI50 in the experiment on ACHN and in the experiment with HT-29 was > 100 µM (inactive) each time.
In the case of `Fc1ccc(C(OCCN2CCN(CCCCl)CC2)c2ccc(F)cc2)cc1`, the GI50 in the experiment on OVCAR-8 was 27.5 µM (inactive); in the experiment with HOP-62, 33 µM (inactive); in the experiment on RPMI-8226 it was 20.8 µM (inactive); in the experiment on PC-3 it was 34.8 µM (inactive); in the experiment on NCI/ADR-RES it was 24.7 µM (inactive); in the experiment with A498 it was 20.9 µM (inactive). In addition, the GI50 is 15.3 µM (inactive) with K562; 37.6 µM (inactive) in the experiment on SNB-19; 38.4 µM (inactive) with SK-MEL-28; 22.9 µM (inactive) in the experiment on SF-295; 41.1 µM (inactive) in the experiment with EKVX; 28.9 µM (inactive) in the experiment with DU-145. The GI50 in the experiment with OVCAR-3 was 25.8 µM (inactive); in the experiment on Hs-578T, 29.9 µM (inactive); in the experiment on OVCAR-5, 23.1 µM (inactive); in the experiment on COLO 205, 16.3 µM (inactive); in the experiment on UO-31 it was 18.4 µM (inactive); with MDA-MB-231, 26.5 µM (inactive). The GI50 in the experiment on ACHN was 46 µM (inactive); in the experiment on HT-29, 17 µM (inactive).
Consider `COc1ccc(/C=C(\NC(=O)c2ccccc2)C(=O)NN(C)c2ccnc3cc(Cl)ccc23)cc1OC`, for which the GI50 in the experiment with OVCAR-8 was 23.4 µM (inactive); in the experiment on HOP-62, 41.3 µM (inactive); in the experiment with RPMI-8226, 20 µM (inactive); with PC-3, 27.4 µM (inactive); in the experiment on NCI/ADR-RES, 20.1 µM (inactive); in the experiment on A498, > 100 µM (inactive). Also, the GI50 in the experiment on K562 was 18.9 µM (inactive); with SNB-19, 41.2 µM (inactive); in the experiment with SK-MEL-28, 26 µM (inactive); in the experiment on SF-295, 36.2 µM (inactive); in the experiment on EKVX, 50.7 µM (inactive); in the experiment with DU-145, 27.2 µM (inactive). The GI50 was 27.6 µM (inactive) in the experiment on OVCAR-3; 52.8 µM (inactive) with Hs-578T; 45.9 µM (inactive) in the experiment on OVCAR-5; 24.2 µM (inactive) with COLO 205; 28.2 µM (inactive) with UO-31; 24.3 µM (inactive) with MDA-MB-231. For the same compound, the figures for the GI50 in the experiment on ACHN and in the experiment on HT-29 were 26.1 µM (inactive) and 34.7 µM (inactive), respectively.
Take `NC(=O)NCCSC1CCCCC1O` (stereo not given): the GI50 in the experiment on OVCAR-8, with HOP-62, in the experiment with RPMI-8226, in the experiment with PC-3, in the experiment on NCI/ADR-RES and with A498 was > 100 µM (inactive) in each case. The GI50 in the experiment on K562, in the experiment with SNB-19, in the experiment with SK-MEL-28, in the experiment on SF-295, in the experiment on EKVX and in the experiment on DU-145 was > 100 µM (inactive) throughout. Moreover, the GI50 in the experiment on OVCAR-3, in the experiment with Hs-578T, in the experiment with OVCAR-5, in the experiment with COLO 205, in the experiment on UO-31 and in the experiment on MDA-MB-231 was > 100 µM (inactive) throughout. Moreover, the GI50 in the experiment on ACHN and in the experiment on HT-29 was > 100 µM (inactive) each time.
With `Nc1nc(-c2ccccc2/N=N/N2CCCC2)nc2ccccc12`, the GI50 was 1.45 µM (inactive) in the experiment with OVCAR-8; 1.73 µM (inactive) with HOP-62; 2 µM (inactive) in the experiment with RPMI-8226; 3.7 µM (inactive) with PC-3; 2.99 µM (inactive) in the experiment with NCI/ADR-RES; 7.76 µM (inactive) in the experiment on A498. Further, the GI50 was 3.05 µM (inactive) in the experiment with K562; 3.69 µM (inactive) in the experiment on SNB-19; 12.2 µM (inactive) in the experiment with SK-MEL-28; 2.32 µM (inactive) in the experiment with SF-295; 10.8 µM (inactive) with EKVX; 4.93 µM (inactive) in the experiment on DU-145. In addition, the GI50 in the experiment on OVCAR-3 is 1.85 µM (inactive); in the experiment with Hs-578T, 3.39 µM (inactive); in the experiment with OVCAR-5, 1.86 µM (inactive); with COLO 205 it was 2.56 µM (inactive); in the experiment with UO-31 it was 1.57 µM (inactive); in the experiment on MDA-MB-231, 1.58 µM (inactive). Moreover, the GI50 in the experiment on ACHN was 2.52 µM (inactive); with HT-29, 2.38 µM (inactive).
For `Cc1ccc([N+](=O)[O-])c2c(NCCCN(C)C)ccnc12`, the GI50 in the experiment with OVCAR-8 is 98.4 µM (inactive); in the experiment with HOP-62, > 90.4 µM (inactive); in the experiment on RPMI-8226 it was > 100 µM (inactive); in the experiment with PC-3, 33.6 µM (inactive); in the experiment with NCI/ADR-RES, 66.2 µM (inactive); in the experiment on A498, 61.4 µM (inactive). Besides, the GI50 in the experiment with K562 is 70.8 µM (inactive); in the experiment on SNB-19, > 100 µM (inactive); in the experiment on SK-MEL-28, > 100 µM (inactive); in the experiment with SF-295 it was > 100 µM (inactive); with EKVX, > 49 µM (inactive); in the experiment on DU-145, > 100 µM (inactive). Also, the GI50 in the experiment on OVCAR-3 was 33.1 µM (inactive); in the experiment with Hs-578T it was > 100 µM (inactive); with OVCAR-5, > 100 µM (inactive); in the experiment on COLO 205, 15 µM (inactive); in the experiment on UO-31, > 100 µM (inactive); in the experiment with MDA-MB-231, > 100 µM (inactive). Besides, the GI50 in the experiment with ACHN was 57 µM (inactive); in the experiment on HT-29, 31 µM (inactive).
As to `CCCCC1Cc2cc(OC)ccc2-c2n1c1cc(OC)ccc1[n+]2C.CCCCC1Cc2cc(OC)ccc2-c2n1c1ccc(OC)cc1[n+]2C` (stereo not given), the GI50 with OVCAR-8 is 2.75 µM (inactive); with HOP-62, 6.08 µM (inactive); with RPMI-8226 it was 0.221 µM (active); in the experiment on PC-3, 2.6 µM (inactive); in the experiment with NCI/ADR-RES, > 100 µM (inactive); in the experiment on A498, 16.9 µM (inactive). Also, the GI50 with K562 is 0.475 µM (active); in the experiment with SNB-19, 0.904 µM (active); with SK-MEL-28, 6.3 µM (inactive); in the experiment with SF-295 it was 2.39 µM (inactive); with EKVX, 0.466 µM (active); in the experiment with DU-145, 5.32 µM (inactive). Moreover, the GI50 was 1.4 µM (inactive) in the experiment on OVCAR-3; 2.77 µM (inactive) in the experiment on Hs-578T; 9.77 µM (inactive) in the experiment with OVCAR-5; 0.401 µM (active) in the experiment on COLO 205; 15.5 µM (inactive) in the experiment with UO-31; 2.63 µM (inactive) with MDA-MB-231. Besides, the GI50 in the experiment on ACHN was 12.6 µM (inactive); with HT-29 it was 1.97 µM (inactive).
For the compound `CCc1nc(N)nc(N)c1-c1ccc(N2CCNCC2)c([N+](=O)[O-])c1`, the GI50 in the experiment on OVCAR-8 is 6.7 µM (inactive); in the experiment on HOP-62, 19.4 µM (inactive); with RPMI-8226, 29.5 µM (inactive); in the experiment with PC-3, 5.28 µM (inactive); in the experiment on NCI/ADR-RES, > 100 µM (inactive); in the experiment with A498, 39.7 µM (inactive). For the same compound, the GI50 in the experiment on K562 was 0.718 µM (active); in the experiment with SNB-19, 41.5 µM (inactive); with SK-MEL-28 it was 40.5 µM (inactive); in the experiment on SF-295, 7.96 µM (inactive); with EKVX, 23.8 µM (inactive); with DU-145 it was 29.2 µM (inactive). Moreover, the GI50 in the experiment on OVCAR-3 is 35.3 µM (inactive); in the experiment on Hs-578T it was 18.5 µM (inactive); with OVCAR-5, 30.3 µM (inactive); in the experiment on COLO 205, 15.3 µM (inactive); in the experiment with UO-31 it was 78.7 µM (inactive); with MDA-MB-231, 26.5 µM (inactive). Further, the figures for the GI50 in the experiment on ACHN and in the experiment on HT-29 were 17.9 µM (inactive) and 4.47 µM (inactive), respectively.
As to `COc1cc2c3c(c1OC)-c1cc4c(cc1CC3(C#N)N(C(=O)c1ccccc1)CC2)OCO4` (stereo not given), the GI50 with OVCAR-8 is 20.7 µM (inactive); in the experiment on HOP-62 it was 42.1 µM (inactive); in the experiment with RPMI-8226 it was > 87.5 µM (inactive); with PC-3, > 76.4 µM (inactive); in the experiment with NCI/ADR-RES it was > 60 µM (inactive); in the experiment with A498, 41.1 µM (inactive). Further, the GI50 with K562 was 73.5 µM (inactive); with SNB-19 it was 22.2 µM (inactive); with SK-MEL-28, 59.7 µM (inactive); in the experiment with SF-295, 33.3 µM (inactive); in the experiment on EKVX it was 45.8 µM (inactive); in the experiment on DU-145, > 100 µM (inactive). The GI50 in the experiment on OVCAR-3 is 40.5 µM (inactive); in the experiment on Hs-578T, 19.6 µM (inactive); in the experiment with OVCAR-5 it was > 56.2 µM (inactive); with COLO 205 it was > 100 µM (inactive); in the experiment on UO-31, 51.2 µM (inactive); in the experiment with MDA-MB-231 it was 67.6 µM (inactive). Also, the results for the GI50 in the experiment with ACHN and in the experiment with HT-29 were 40.4 µM (inactive) and > 100 µM (inactive), respectively.
